Data from patent publication US20260053811A1, “METHODS OF TREATING HYPERTENSION IN OBESE SUBJECTS” (Mineralys Therapeutics, Inc., priority 2022, published 2026).

Tested on: hypertensive subjects
Experiment: Seated automated office blood pressure (AOBP) in randomized, placebo-controlled, dose-ranging study
Type: in vivo, human
Conditions: Part 1, 100 mg QD
Procedure: A randomized, double-blinded, placebo-controlled, dose-ranging, multicenter study was conducted to evaluate the effect of orally administered Compound A HBr on blood pressure for the treatment of hypertension in male and female subjects ≥18 years of age.
The study consists of two parts. For enrollment into Part 1 of the study, a subject's value of plasma renin activity (PRA) must be ≤1 ng/mL/h based on morning measurement. If the value of PRA >1 ng/mL/h based on morning measurement, then subjects may be eligible to enter Part 2 of the study.
For Part 1, 163 enrolled subjects ≥18 years of age were randomized into 6 equal treatment groups (1:1:1:1:1:1) to 12.5 mg BID, 25 mg BID, 12.5 mg QD, 50 mg QD, 100 mg QD, or placebo. After a review of interim clinical data, the 2 lowest dose levels (12.5 mg QD and 12.5 mg BID) were stopped for future randomization due to a lack of consistent meaningful reduction of blood pressure, but the patients randomized to that point remained in the study through completion. Thus, after the review of interim clinical data, subjects were randomized into 4 equal treatment groups (1:1:1:1) to 25 mg BID, 50 mg QD, 100 mg QD, or placebo.
For Part 2, 36 enrolled subjects ≥18 years of age were randomized (5:1) to either 100 mg QD Compound A HBr or placebo such that the Compound A HBr treatment group consisted of approximately 30 subjects and the placebo treatment group will consist of approximately 6 subjects.
Subjects orally administered the assigned study drug (Compound A HBr or placebo) according to the assigned dosing regimen for 8 weeks beginning on Study Day 1. All subjects in Part 1 (regardless of dosing group) received BID dosing to preserve the integrity of the blind; active drug is administered as the morning dose for all QD dose groups. Subjects returned to the research facility or were seen by the clinical investigator or approved home health care professional at the end of Study Weeks 1, 2, 3, 4, 5, 6, 7, and 8 (±2 days) for protocol-defined efficacy and safety assessments and procedures, assessment of adverse events (AEs), and confirmation of compliance with study drug usage. Subjects also completed a telephone visit and blood pressure (BP) check at home approximately 3 days post last dose of study drug. Subjects attended up to 14 full clinic visits, including a pre-Screening visit, a Screening/start of Placebo Run-in visit, a second visit during Placebo Run-in, a clinic visit to initiate the ABPM procedure, a Randomization visit, 8 weekly visits during double-blind treatment, and an end-of-study visit scheduled 4 weeks after the last study treatment for final efficacy and safety assessments.
An automated oscillometric sphygmomanometer device was used to measure the subjects' systolic and diastolic blood pressure in office after approximately 5 minutes of rest in the seated position.
The primary endpoint is the change in office-measured (mean of last 2 of 5 unattended measurements using an automated oscillometric sphygmomanometer device after approximately 5 minutes of rest in the seated position) systolic blood pressure (SBP) from baseline to the end of Study Week 8.
Secondary endpoints of this study were: • (a) Change in 24-hour ambulatory blood pressure monitoring (ABPM) parameters (systolic and diastolic) from baseline to the end of Study Week 7. • (b) Change in office-measured SBP from baseline to the end of Study Weeks 1, 2, 3, 4, 5, 6, and 7. • (c) Change in office-measured diastolic blood pressure (DBP) from baseline to the end of Study Weeks 1, 2, 3, 4, 5, 6, 7, and 8. • (d) Proportion of subjects who achieve office-measured BP of ≤130/80 mm Hg by the end of Study Week 8.

[1] = Systolic Blood Pressure Tertile at Baseline High
[2] = Systolic Blood Pressure Tertile at Baseline Low
[3] = Systolic Blood Pressure Tertile at Baseline Middle
[4] = Thiazide Diuretic Use at Baseline No

For `CC(=O)N[C@H]1CC[C@H](NC(=O)CN2CCN(c3nncc(-c4ccc(C)cc4)n3)CC2)CC1` [Compound A HBr], the “Mean (SD) Automated Office-Measured Diastolic Blood Pressure at Wk 8” value (Age ≥80 yr) was 65.75 (11.73) mmHg, the “Mean (SD) Automated Office-Measured Systolic Blood Pressure at Wk 8” value (Age ≥80 yr) was 125.00 (8.04) mmHg and the “Mean (SD) Change from Baseline at Week 8 in Automated Office-Measured Diastolic Blood Pressure” value (Age ≥80 yr) was −4.75 (8.03) mmHg. For the same compound, the “Mean (SD) Change from Baseline at Week 8 in Automated Office-Measured Systolic Blood Pressure” value (Age ≥80 yr) was −18.13 (12.34) mmHg, the “Mean (SD) Automated Office-Measured Diastolic Blood Pressure at Wk 8” value (BMI 25−30 kg/m^2) was 72.67 (9.33) mmHg and the “Mean (SD) Change from Baseline at Week 8 in Automated Office-Measured Diastolic Blood Pressure” value (BMI 25−30 kg/m^2) was −6.50 (7.61) mmHg. For the same compound, the “Mean (SD) Automated Office-Measured Diastolic Blood Pressure at Wk 8” value (BMI <25 kg/m^2) was 78.33 (19.14) mmHg, the “Mean (SD) Change from Baseline at Week 8 in Automated Office-Measured Diastolic Blood Pressure” value (BMI <25 kg/m^2) was −0.67 (7.01) mmHg and the “Mean (SD) Automated Office-Measured Diastolic Blood Pressure at Wk 8” value (BMI >30 kg/m^2) was 71.42 (7.10) mmHg. For the same compound, the “Mean (SD) Change from Baseline at Week 8 in Automated Office-Measured Diastolic Blood Pressure” value (BMI >30 kg/m^2) was −6.88 (7.81) mmHg, the “Mean (SD) Automated Office-Measured Systolic Blood Pressure at Wk 8” value (BMI at baseline 25-30 kg/m^2) was 129.67 (10.05) mmHg and the “Mean (SD) Change from Baseline at Week 8 in Automated Office-Measured Systolic Blood Pressure” value (BMI at baseline 25-30 kg/m^2) was −11.17 (11.94) mmHg. For the same compound, the “Mean (SD) Automated Office-Measured Systolic Blood Pressure at Wk 8” value (BMI at baseline <25 kg/m^2) was 146.00 (18.33) mmHg, the “Mean (SD) Change from Baseline at Week 8 in Automated Office-Measured Systolic Blood Pressure” value (BMI at baseline <25 kg/m^2) was −7.83 (17.47) mmHg and the “Mean (SD) Automated Office-Measured Systolic Blood Pressure at Wk 8” value (BMI at baseline >30 kg/m^2) was 129.00 (15.28) mmHg. The “Mean (SD) Change from Baseline at Week 8 in Automated Office-Measured Systolic Blood Pressure” value (BMI at baseline >30 kg/m^2) was −18.50 (13.40) mmHg, the “Mean (SD) Automated Office-Measured Diastolic Blood Pressure at Wk 8” value (Race Black or AA) was 71.92 (10.83) mmHg and the “Mean (SD) Automated Office-Measured Systolic Blood Pressure at Wk 8” value (Race Black or AA) was 129.92 (16.18) mmHg. The “Mean (SD) Change from Baseline at Week 8 in Automated Office-Measured Diastolic Blood Pressure” value (Race Black or AA) was −7.38 (7.65) mmHg, the “Mean (SD) Change from Baseline at Week 8 in Automated Office-Measured Systolic Blood Pressure” value (Race Black or AA) was −17.13 (11.55) mmHg and the “Mean (SD) Automated Office-Measured Diastolic Blood Pressure at Wk 8” value (Race Other) was 74.00 (8.26) mmHg. For the same compound, the “Mean (SD) Automated Office-Measured Systolic Blood Pressure at Wk 8” value (Race Other) was 132.54 (12.47) mmHg, the “Mean (SD) Change from Baseline at Week 8 in Automated Office-Measured Diastolic Blood Pressure” value (Race Other) was −3.69 (7.91) mmHg and the “Mean (SD) Change from Baseline at Week 8 in Automated Office-Measured Systolic Blood Pressure” value (Race Other) was −11.27 (14.54) mmHg. The “Mean (SD) Automated Office-Measured Diastolic Blood Pressure at Wk 8” value (Seated SBP Tertile High) was 72.11 (11.78) mmHg, the “Mean (SD) Change from Baseline at Week 8 in Automated Office-Measured Diastolic Blood Pressure” value (Seated SBP Tertile High) was −8.78 (8.56) mmHg and the “Mean (SD) Automated Office-Measured Diastolic Blood Pressure at Wk 8” value (Seated SBP Tertile Low) was 73.86 (11.01) mmHg. For the same compound, the “Mean (SD) Change from Baseline at Week 8 in Automated Office-Measured Diastolic Blood Pressure” value (Seated SBP Tertile Low) was −0.29 (6.44) mmHg, the “Mean (SD) Automated Office-Measured Diastolic Blood Pressure at Wk 8” value (Seated SBP Tertile Middle) was 73.22 (5.97) mmHg and the “Mean (SD) Change from Baseline at Week 8 in Automated Office-Measured Diastolic Blood Pressure” value (Seated SBP Tertile Middle) was 6.17 (6.64) mmHg. The “Mean (SD) Automated Office-Measured Diastolic Blood Pressure at Wk 8” value (Sex Female) was 70.87 (10.51) mmHg, the “Mean (SD) Automated Office-Measured Systolic Blood Pressure at Wk 8” value (Sex Female) was 132.40 (15.95) mmHg and the “Mean (SD) Change from Baseline at Week 8 in Automated Office-Measured Diastolic Blood Pressure” value (Sex Female) was −3.67 (7.27) mmHg. For the same compound, the “Mean (SD) Change from Baseline at Week 8 in Automated Office-Measured Systolic Blood Pressure” value (Sex Female) was −13.17 (12.05) mmHg, the “Mean (SD) Automated Office-Measured Diastolic Blood Pressure at Wk 8” value (Sex Male) was 76.20 (6.81) mmHg and the “Mean (SD) Automated Office-Measured Systolic Blood Pressure at Wk 8” value (Sex Male) was 129.60 (11.45) mmHg. For the same compound, the “Mean (SD) Change from Baseline at Week 8 in Automated Office-Measured Diastolic Blood Pressure” value (Sex Male) was −8.15 (8.28) mmHg, the “Mean (SD) Change from Baseline at Week 8 in Automated Office-Measured Systolic Blood Pressure” value (Sex Male) was −15.45 (15.48) mmHg and the “Mean (SD) Automated Office-Measured Systolic Blood Pressure at Wk 8” value [1] was 139.11 (15.36) mmHg. For the same compound, the “Mean (SD) Change from Baseline at Week 8 in Automated Office-Measured Systolic Blood Pressure” value [1] was −19.06 (12.91) mmHg, the “Mean (SD) Automated Office-Measured Systolic Blood Pressure at Wk 8” value [2] was 129.86 (9.26) mmHg and the “Mean (SD) Change from Baseline at Week 8 in Automated Office-Measured Systolic Blood Pressure” value [2] was −4.71 (8.58) mmHg. For the same compound, the “Mean (SD) Automated Office-Measured Systolic Blood Pressure at Wk 8” value [3] was 124.56 (13.30) mmHg, the “Mean (SD) Change from Baseline at Week 8 in Automated Office-Measured Systolic Blood Pressure” value [3] was −16.39 (13.97) mmHg and the “Automated Office-Measured Diastolic Blood Pressure, Week 8, Mean (SD)” value [4] was 72.40 (10.54) mmHg. The “Mean (SD) Automated Office-Measured Systolic Blood Pressure at Wk 8” value [4] was 135.80 (9.10) mmHg.
